Columns and labels:
Assay in all cases: Competitive kinase engagement in mouse spleen with probe 3 as occupancy probe
Assay type in all cases: in vivo, mice
[1] = target: CDK2 (Mus musculus, UniProt P97377); settings: 50 mg/kg oral
[2] = target: CDK17 (Mus musculus, UniProt Q8K0D0); settings: 50 mg/kg oral, probe 3 10 mg/kg s.c., 1 h, p < 0.05
[3] = target: CDK5 (Mus musculus, UniProt P49615); settings: 50 mg/kg oral, probe 3 10 mg/kg s.c., 1 h, p < 0.05
CDK5, sequence (P49615 whole entry): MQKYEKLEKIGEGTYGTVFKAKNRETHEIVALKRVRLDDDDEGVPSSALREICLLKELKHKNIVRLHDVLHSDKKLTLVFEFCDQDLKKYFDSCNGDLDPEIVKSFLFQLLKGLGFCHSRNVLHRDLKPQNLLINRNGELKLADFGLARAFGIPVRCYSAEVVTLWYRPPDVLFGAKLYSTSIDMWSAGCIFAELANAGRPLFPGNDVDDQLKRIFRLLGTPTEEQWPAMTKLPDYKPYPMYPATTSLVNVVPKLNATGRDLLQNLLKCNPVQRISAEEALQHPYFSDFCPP

CDK17, sequence (Q8K0D0 whole entry): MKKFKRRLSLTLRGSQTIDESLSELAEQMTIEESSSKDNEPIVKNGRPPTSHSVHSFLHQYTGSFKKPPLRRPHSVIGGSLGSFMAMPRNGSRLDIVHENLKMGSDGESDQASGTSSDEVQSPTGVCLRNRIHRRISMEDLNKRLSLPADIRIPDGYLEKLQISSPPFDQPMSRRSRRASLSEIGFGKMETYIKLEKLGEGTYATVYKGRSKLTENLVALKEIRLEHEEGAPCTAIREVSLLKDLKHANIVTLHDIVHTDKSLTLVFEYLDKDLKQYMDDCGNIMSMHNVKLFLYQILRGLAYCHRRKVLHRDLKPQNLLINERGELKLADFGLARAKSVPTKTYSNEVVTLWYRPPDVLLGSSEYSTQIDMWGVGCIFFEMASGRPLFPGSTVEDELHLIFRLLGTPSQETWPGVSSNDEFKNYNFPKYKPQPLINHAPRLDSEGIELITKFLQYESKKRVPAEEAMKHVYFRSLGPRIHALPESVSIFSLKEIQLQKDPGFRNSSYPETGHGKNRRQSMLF

Compound: C[C@@]1(O)CCC[C@H]1n1c(=O)c(C(F)F)cc2cnc(NC3CCN(S(C)(=O)=O)CC3)nc21 [PF-06873600]
- estimated occupancy of CDK2 in spleen tissue ([1]; mice, based on competition with probe 3): > 80%
- log2 FC of enrichment by probe 3, PF-06873600 vs. vehicle ([1]; mouse spleen, probe 3 10 mg/kg s.c., 1 h, p < 0.05): < –2
- log2 FC of enrichment by probe 3, PF-06873600 vs. vehicle [2]: < –2
- log2 FC of enrichment by probe 3, PF-06873600 vs. vehicle [3]: ~ –1

Source: publication PMC9970282 (Nature chemical biology, 2022)
